Data from patent US9624182B2, “Compounds as lysophosphatidic acid receptor antagonists” (Amira Pharmaceuticals, Inc., priority 2009, dated 2017).

Target: T1, human LPA1 (Homo sapiens, UniProt Q92633)
T1 construct: the full-length cDNA for human LPA1 was obtained by PCR of the reverse transcription reaction; expressed in transfected cells
Assay: LPA1 calcium flux assay
Assay type: cell-based
Conditions: CHO cells expressing human LPA1, stimulated with 10 nM LPA; read-out: HLPA1 Ca Flux IC50
Method in brief: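 Antagonism measured as block of 10 nM LPA-evoked calcium rise in stable human LPA1-CHO cells. After overnight serum-free culture and 1 h dye loading at 37 °C (buffer with 0.3% fatty-acid-free albumin), compound was added for 30 min at room temperature. Titration curves gave IC50.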

T1 sequence (Q92633 whole entry): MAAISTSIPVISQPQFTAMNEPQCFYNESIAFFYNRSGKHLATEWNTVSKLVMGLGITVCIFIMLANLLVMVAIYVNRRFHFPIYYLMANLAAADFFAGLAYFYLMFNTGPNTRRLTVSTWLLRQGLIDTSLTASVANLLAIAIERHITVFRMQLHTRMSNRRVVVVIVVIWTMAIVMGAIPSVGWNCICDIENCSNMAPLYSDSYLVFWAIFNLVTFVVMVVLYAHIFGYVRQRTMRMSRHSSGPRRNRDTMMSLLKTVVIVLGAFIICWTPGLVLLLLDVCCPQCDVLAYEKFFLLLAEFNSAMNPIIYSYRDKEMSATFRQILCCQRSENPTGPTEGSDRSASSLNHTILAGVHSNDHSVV

Row | SMILES | IC50 [µM]
1 | Cc1noc(-c2ccc(-c3ccc(C4(C(=O)O)CC4)cc3)cc2)c1CN(C)C(=O)Cc1ccccc1 [Compound 1-71, 1-(4′-{3-Methyl-4-[(methyl-phenylacetyl-amino)-methyl]-isoxazol-5-yl}-biphenyl-4-yl)-cyclopropanecarboxylic acid] | 0.3 to 1
2 | Cc1noc(-c2ccc(-c3ccc(C4(C(=O)O)CC4)cc3)cc2)c1CN(CC(C)c1ccccc1)C(=O)C1CC1 (stereo not shown) [Compound 1-73, 1-[4′-(4-{[Cyclopropanecarbonyl-(2-phenyl-propyl)-amino]-methyl}-3-methyl-isoxazol-5-yl)-biphenyl-4-yl]-cyclopropanecarboxylic acid] | 1 to 50
3 | Cc1noc(-c2ccc(-c3ccc(C4(C(=O)O)CC4)cc3)cc2)c1CN(CC(C)c1ccccc1)C(=O)c1ccccc1 (stereo not shown) [Compound 1-74, 1-[4′-(4-{[Benzoyl-(2-phenyl-propyl)-amino]-methyl}-3-methyl-isoxazol-5-yl)-biphenyl-4-yl]-cyclopropanecarboxylic acid] | 1 to 50
4 | Cc1noc(-c2ccc(-c3ccc(C4(C(=O)O)CC4)cc3)cc2)c1CCOCc1ccccn1 [Compound 1-75, 1-(4′-{3-Methyl-4-[2-(pyridin-2-ylmethoxy)-ethyl]-isoxazol-5-yl}-biphenyl-4-yl)-cyclopropanecarboxylic acid] | 1 to 50
5 | Cc1noc(-c2ccc(-c3ccc(C4(C(=O)O)CC4)cc3)cc2)c1CCOCc1cccnc1 [Compound 1-76, 1-(4′-{3-Methyl-4-[2-(pyridin-3-ylmethoxy)-ethyl]-isoxazol-5-yl}-biphenyl-4-yl)-cyclopropanecarboxylic acid] | 1 to 50
6 | Cc1noc(-c2ccc(-c3ccc(C4(C(=O)O)CC4)cc3)cc2)c1CCOCc1ccncc1 [Compound 1-77, 1-(4′-{3-Methyl-4-[2-(pyridin-4-ylmethoxy)-ethyl]-isoxazol-5-yl}-biphenyl-4-yl)-cyclopropanecarboxylic acid] | > 50
7 | Cc1noc(-c2ccc(-c3ccc(C4(C(=O)O)CC4)cc3)cc2)c1CC[S+]([O-])Cc1ccccc1 (stereo not shown) [Compound 1-84, 1-{4′-[3-Methyl-4-(2-phenylmethanesulfinyl-ethyl)-isoxazol-5-yl]-biphenyl-4-yl}-cyclopropanecarboxylic acid] | 1 to 50
8 | Cc1noc(-c2ccc(-c3ccc(C4(C(=O)O)CC4)cc3)cc2)c1CCS(=O)(=O)Cc1ccccc1 [Compound 1-85, 1-{4′-[3-Methyl-4-(2-phenylmethanesulfonyl-ethyl)-isoxazol-5-yl]-biphenyl-4-yl}-cyclopropanecarboxylic acid] | > 50
9 | Cc1noc(-c2ccc(-c3ccc(C4(C(=O)O)CC4)cc3)cc2)c1CC(=O)N[C@H]1c2ccccc2C[C@H]1O [Compound 1-92, 1-(4′-{4-[((1S,2R)-2-Hydroxy-indan-1-ylcarbamoyl)-methyl]-3-methyl-isoxazol-5-yl}-biphenyl-4-yl)-cyclopropanecarboxylic acid] | 1 to 50
10 | Cc1noc(-c2ccc(-c3ccc(C4(C(=O)O)CC4)cc3)cc2)c1/C=C/CCc1ccccc1 [Compound 1-95, 1-{4′-[3-Methyl-4-((E)-4-phenyl-but-1-enyl)-isoxazol-5-yl]-biphenyl-4-yl}-cyclopropanecarboxylic acid] | 0.3 to 1
11 | Cc1noc(-c2ccc(-c3ccc(C4(C(=O)O)CC4)cc3)cc2)c1C(C)C(=O)NC(C)c1ccccc1 (stereo not shown) [Compound 1-97, 1-(4′-{3-Methyl-4-[1-(1-phenyl-ethylcarbamoyl)-ethyl]-isoxazol-5-yl}-biphenyl-4-yl)-cyclopropanecarboxylic acid] | 1 to 50
12 | Cc1noc(-c2ccc(-c3ccc(C4(C(=O)O)CC4)cc3)cc2)c1CNC(=O)C(C)Oc1ccccc1 (stereo not shown) [Compound 1-100, 1-(4′-{3-Methyl-4-[(2-phenoxy-propionylamino)-methyl]-isoxazol-5-yl}-biphenyl-4-yl)-cyclopropanecarboxylic acid] | 0.3 to 1
13 | Cc1noc(-c2ccc(-c3ccc(C4(CC(=O)O)CC4)cc3)cc2)c1/C=C\CCc1ccccc1 [Compound 1-101, (1-{4′-[3-Methyl-4-((Z)-4-phenyl-but-1-enyl)-isoxazol-5-yl]-biphenyl-4-yl}-cyclopropyl)-acetic acid] | < 0.3
14 | Cc1noc(-c2ccc(-c3ccc(C4(CC(=O)O)CC4)cc3)cc2)c1/C=C/CCc1ccccc1 [Compound 1-102, (1-{4′-[3-Methyl-4-((E)-4-phenyl-but-1-enyl)-isoxazol-5-yl]-biphenyl-4-yl}-cyclopropyl)-acetic acid] | 0.3 to 1
15 | CCN(Cc1c(C)noc1-c1ccc(-c2ccc(C3(C(=O)O)CC3)cc2)cc1)C[C@H](C)c1ccccc1 [Compound 1-104, 1-[4′-(4-{[Ethyl-((R)-2-phenyl-propyl)-amino]-methyl}-3-methyl-isoxazol-5-yl)-biphenyl-4-yl]-cyclopropanecarboxylic acid] | < 0.3
16 | Cc1noc(-c2ccc(-c3ccc(C4(C(=O)O)CC4)cc3)cc2)c1CCC(=O)N(C)[C@H](C)c1ccccc1 [Compound 1-105, 1-[4′-(3-Methyl-4-{2-[(R)-methyl-(1-phenyl-ethyl)-carbamoyl]-ethyl}-isoxazol-5-yl)-biphenyl-4-yl]-cyclopropanecarboxylic acid] | < 0.3
17 | Cc1noc(-c2ccc(-c3ccc(C4(C(=O)O)CC4)cc3)cc2)c1CCC(=O)NC(C)(C)c1ccccc1 [Compound 1-106, 1-(4′-{3-Methyl-4-[2-(1-methyl-1-phenyl-ethylcarbamoyl)-ethyl]-isoxazol-5-yl}-biphenyl-4-yl)-cyclopropanecarboxylic acid] | 1 to 50
18 | Cc1noc(-c2ccc(-c3ccc(C4(C(=O)O)CC4)cc3)cc2)c1CCC(=O)N1Cc2ccccc2C1 [Compound 1-107, 1-(4′-{4-[3-(1,3-Dihydro-isoindol-2-yl)-3-oxo-propyl]-3-methyl-isoxazol-5-yl}-biphenyl-4-yl)-cyclopropanecarboxylic acid] | > 50
19 | Cc1noc(-c2ccc(-c3ccc(CC(=O)O)cc3)cc2)c1CSCCc1ccccc1 [Compound 1-108, [4′-(3-Methyl-4-phenethylsulfanylmethyl-isoxazol-5-yl)-biphenyl-4-yl]-acetic acid] | < 0.3
20 | Cc1noc(-c2ccc(-c3ccc(CC(=O)O)cc3)cc2)c1CS(=O)(=O)CCc1ccccc1 [Compound 1-109, {4′-[3-Methyl-4-(2-phenyl-ethanesulfonylmethyl)-isoxazol-5-yl]-biphenyl-4-yl}-acetic acid] | 1 to 50

Results, then the molecule that gave them:

Row | IC50 [µM] | SMILES
21 | < 0.3 | CC(=O)N(Cc1c(C)noc1-c1ccc(-c2ccc(C3(C(=O)O)CC3)cc2)cc1)CC(C)c1ccccc1 (stereo not shown) [Compound 1-70, 1-[4′-(4-{[Acetyl-(2-phenyl-propyl)-amino]-methyl}-3-methyl-isoxazol-5-yl)-biphenyl-4-yl]-cyclopropanecarboxylic acid]
22 | < 0.3 | Cc1noc(-c2ccc(-c3ccc(C4(C(=O)O)CC4)cc3)cc2)c1CN(C)C(=O)C(C)Oc1ccccc1 (stereo not shown) [Compound 1-72, 1-[4′-(3-Methyl-4-{[methyl-(2-phenoxy-propionyl)-amino]-methyl}-isoxazol-5-yl)-biphenyl-4-yl]-cyclopropanecarboxylic acid]
23 | < 0.3 | Cc1noc(-c2ccc(-c3ccc(C4(C(=O)O)CC4)cc3)cc2)c1CCC(=O)N(C)c1ccccc1 [Compound 1-82, 1-(4′-{3-Methyl-4-[2-(methyl-phenyl-carbamoyl)-ethyl]-isoxazol-5-yl}-biphenyl-4-yl)-cyclopropanecarboxylic acid]
24 | < 0.3 | Cc1noc(-c2ccc(-c3ccc(C4(C(=O)O)CC4)cc3)cc2)c1CN(C)CC(C)c1ccccc1 (stereo not shown) [Compound 1-87, 1-[4′-(3-Methyl-4-{[methyl-(2-phenyl-propyl)-amino]-methyl}-isoxazol-5-yl)-biphenyl-4-yl]-cyclopropanecarboxylic acid]
25 | < 0.3 | Cc1noc(-c2ccc(-c3ccc(C4(C(=O)O)CC4)cc3)cc2)c1CC(=O)CCc1ccccc1 [Compound 1-88, 1-{4′-[3-Methyl-4-(2-oxo-4-phenyl-butyl)-isoxazol-5-yl]-biphenyl-4-yl}-cyclopropanecarboxylic acid]
26 | < 0.3 | Cc1noc(-c2ccc(-c3ccc(C4(C(=O)O)CC4)cc3)cc2)c1CC(=O)NC1Cc2ccccc2C1 [Compound 1-90, 1-{4′-[4-(Indan-2-ylcarbamoylmethyl)-3-methyl-isoxazol-5-yl]-biphenyl-4-yl}-cyclopropanecarboxylic acid]
27 | < 0.3 | Cc1noc(-c2ccc(-c3ccc(C4(C(=O)O)CC4)cc3)cc2)c1CC(=O)N(C)Cc1ccccc1F [Compound 1-91, 1-[4′-(4-{[(2-Fluoro-benzyl)-methyl-carbamoyl]-methyl}-3-methyl-isoxazol-5-yl)-biphenyl-4-yl]-cyclopropanecarboxylic acid]
28 | < 0.3 | Cc1noc(-c2ccc(-c3ccc(C4(C(=O)O)CC4)cc3)cc2)c1/C=C\CCc1ccccc1 [Compound 1-94, 1-{4′-[3-Methyl-4-((Z)-4-phenyl-but-1-enyl)-isoxazol-5-yl]-biphenyl-4-yl}-cyclopropanecarboxylic acid]
29 | < 0.3 | Cc1noc(-c2ccc(-c3ccc(C4(C(=O)O)CC4)cc3)cc2)c1CSCC(C)C [Compound 1-96, 1-[4′-(4-Isobutylsulfanylmethyl-3-methyl-isoxazol-5-yl)-biphenyl-4-yl]-cyclopropanecarboxylic acid]
30 | < 0.3 | Cc1noc(-c2ccc(-c3ccc(C4(C(=O)O)CC4)cc3)cc2)c1CNC(=O)C(C)(C)c1ccccc1 [Compound 1-98, 1-(4′-{3-Methyl-4-[(2-methyl-2-phenyl-propionylamino)-methyl]-isoxazol-5-yl}-biphenyl-4-yl)-cyclopropanecarboxylic acid]
31 | < 0.3 | Cc1noc(-c2ccc(-c3ccc(C4(C(=O)O)CC4)cc3)cc2)c1CC(=O)N[C@H]1CCc2ccccc21 [Compound 1-99, 1-{4′-[4-((S)-Indan-1-ylcarbamoylmethyl)-3-methyl-isoxazol-5-yl]-biphenyl-4-yl}-cyclopropanecarboxylic acid]
